Results as given in patent US20060199816A1, “Aryl sulfonyl piperidines” (priority 2005, published 2006).

Biological target: human HSD1 (Homo sapiens, UniProt P28845)
Assay: in vitro inhibition of 11β-HSD1 (cortisone to cortisol conversion, time-resolved fluorescence)
Format: biochemical
Conditions: purified human HSD1, cortisone substrate, NADPH, 30 min incubation, time-resolved fluorescence readout; read-out: hHSD1 IC50
Experimental: Purified human HSD1 was diluted in 50 mM Tris-HCl, 100 mM NaCl, 0.1 mg/ml BSA, 0.02% Lubrol, 20 mM MgCl2, 10 mM glucose 6-phosphate, 0.4 mM NADPH, 60 U/ml glucose 6-phosphate dehydrogenase to a concentration of 1.5 ug/ml (Enzyme Solution). Cortisone (100 uM) in DMSO was diluted to 1 uM with 50 mM Tris-HCl, 100 mM NaCl (Substrate Solution). Testing compounds (40 uM) in DMSO was diluted 3 fold in series in DMSO and further diluted 20 fold in Substrate Solution. Enzyme Solution (10 ul/well) was added into 384 well microtiter plates followed by diluted compound solutions (10 ul/well) and mixed well. Samples were then incubated at […] for 30 min. EDTA/biotin-cortisol solution (10 ul/well) in 28 mM EDTA, 100 nM biotin-cortisol, 50 mM Tris-HCl, 100 mM NaCl was then added followed by 5 ul/well of anti-cortisol antibody (3.2 ug/ml) in 50 mM Tris-HCl, 100 mM NaCl, 0.1 mg/ml BSA and the solution was incubated at 37 degrees for 30 min. Five ul per well of Eu-conjugated anti-mouse IgG (16 nM) and APC-conjugated streptavidin (160 nM) in 50 mM Tris-HCl, 100 mM NaCl, 0.1 mg/ml BSA was added and the solution was incubated at room temperature for 2 hours. Signals were quantitated by reading time-resolved fluorescence on a Victor 5 reader (Wallac).
Percent inhibition of HSD1 activity by an agent at various concentrations was calculated by the formula % Inhibition=100*[1−(Fs−Fb)/(Ft−Fb)], where: • Fs is the fluorescence signal of the sample which included the agent, • Fb is the fluorescence signal in the absence of HSD1 and agent, • Ft is the fluorescence signal in the presence of HSD1, but no agent.
The inhibitory activities of test compounds were determined by the IC50s, or the concentration of compound that gave 50% inhibition.

human HSD1, sequence (P28845 whole entry): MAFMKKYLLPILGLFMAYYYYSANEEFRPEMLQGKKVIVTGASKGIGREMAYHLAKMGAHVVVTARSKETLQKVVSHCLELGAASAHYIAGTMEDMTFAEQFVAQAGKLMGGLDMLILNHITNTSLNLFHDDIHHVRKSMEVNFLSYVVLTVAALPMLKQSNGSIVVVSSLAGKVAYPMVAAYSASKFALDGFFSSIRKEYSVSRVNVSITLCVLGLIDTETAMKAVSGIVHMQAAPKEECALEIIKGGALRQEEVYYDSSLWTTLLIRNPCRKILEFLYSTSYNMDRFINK

| SMILES | IC50 |
| --- | --- |
| CC(C)CCNC(=O)[C@@H]1CCCN(S(=O)(=O)c2ccccc2Cl)C1 [Example 2, (3R)-1-(2-Chloro-benzenesulfonyl)-piperidine-3-carboxylic acid (3-methyl-butyl)-amide] | 290 nM |
| O=C(NCc1cccc2ccccc12)C1CCCN(S(=O)(=O)c2ccccc2Cl)C1 (stereo not drawn) [Example 43, 1-(2-Chloro-benzenesulfonyl)-piperidine-3-carboxylic acid (naphthalen-1-ylmethyl)-amide] | 25 nM |
| CC(CNC(=O)C1CCCN(S(=O)(=O)c2ccccc2Cl)C1)c1ccccc1 (stereo not drawn) [Example 50] | 31 nM |
| O=C(NC1CCCCC1)C1CCCN(S(=O)(=O)c2ccc3ccccc3c2)C1 (stereo not drawn) [Example 73, 1-(Naphthalene-2-sulfonyl)-piperidine-3-carboxylic acid cyclohexylamide] | 47 nM |
| Cc1c(Cl)cccc1S(=O)(=O)N1CCCC(C(=O)NCCCc2ccccc2)C1 (stereo not drawn) [Example 80, 1-(3-Chloro-2-methyl-benzenesulfonyl)-piperidine-3-carboxylic acid (3-phenyl-propyl)-amide] | 12000 nM |
| Cc1ccccc1CNC(=O)C1CCCN(S(=O)(=O)c2ccc(F)cc2)C1 (stereo not drawn) [Example 128, 1-(4-Fluoro-benzenesulfonyl)-piperidine-3-carboxylic acid 2-methyl-benzylamide] | 3000 nM |
| CC(C)c1ccc(S(=O)(=O)N2CCCC(C(=O)NC3CCCCC3)C2)cc1 (stereo not drawn) [Example 135, 1-(4-Isopropyl-benzenesulfonyl)-piperidine-3-carboxylic acid cyclohexylamide] | 390 nM |
| O=C(NCCc1cccc(Cl)c1)C1CCCN(S(=O)(=O)c2cccc3cccnc23)C1 (stereo not drawn) [Example 157, 1-(Quinoline-8-sulfonyl)-piperidine-3-carboxylic acid [2-(3-chloro-phenyl)-ethyl]-amide] | 910 nM |
| O=C(NC1CCc2ccccc21)C1CCCN(S(=O)(=O)c2ccccc2)C1 (stereo not drawn) [Example 169, 1-Benzenesulfonyl-piperidine-3-carboxylic acid indan-1-ylamide] | 390 nM |
| CCC(COC)NC(=O)C1CCCN(S(=O)(=O)c2ccccc2)C1 (stereo not drawn) [Example 173, 1-Benzenesulfonyl-piperidine-3-carboxylic acid (1-methoxymethyl-propyl)-amide] | 940 nM |
| Cc1ccccc1CNC(=O)C1CCCN(S(=O)(=O)c2ccccc2)C1 (stereo not drawn) [Example 175, 1-Benzenesulfonyl-piperidine-3-carboxylic acid 2-methyl-benzylamide] | 3000 nM |
| O=C(NC1CCCc2ccccc21)C1CCCN(S(=O)(=O)c2cccs2)C1 (stereo not drawn) [Example 187, 1-(Thiophene-2-sulfonyl)-piperidine-3-carboxylic acid (1,2,3,4-tetrahydro-naphthalen-1-yl)-amide] | 190 nM |
